Experimental data from PubChem BioAssay AID268 (DTP/NCI, 2004).
Where “and” joins values, the source holds several entries; their conditions need not be identical. Equal values may be shown once.

Test system: CD2F1 mice, P1798 lymphosarcoma sc, tumor weight T/C
Assay: NCI In Vivo Anticancer Drug Screen. Data for tumor model P1798 Lymphosarcoma (subcutaneous) in CD2F1 (CDF1) mice
Conditions: endpoint: mean tumor weight, higher = larger tumour
Procedure: The antitumor activity of compounds was measured in mice bearing transplantable tumors. Survival or tumor size were measured and the results are expressed as the measurement made in the treated group (T) divided by the measurement made in the vehicle treated control group (C). The tumor model used in this assay is P1798 Lymphosarcoma (subcutaneous) in CD2F1 (CDF1) mice

[1] = dose: 5.0 mg/kg/injection, schedule: Q01DX010 (ip), vehicle: saline
[2] = dose: 10.0 mg/kg/injection, schedule: Q01DX010 (ip), vehicle: saline
[3] = dose: 20.0 mg/kg/injection, schedule: Q01DX010 (ip), vehicle: saline
[4] = dose: 40.0 mg/kg/injection, schedule: Q01DX010 (ip), vehicle: saline
[5] = dose: 50.0 mg/kg/injection, schedule: Q01DX010 (ip), vehicle: saline
[6] = dose: 100.0 mg/kg/injection, schedule: Q01DX010 (ip), vehicle: saline
[7] = dose: 25.0 mg/kg/injection, schedule: Q01DX010 (sc), vehicle: steriod suspending solution
[8] = dose: 12.5 mg/kg/injection, schedule: Q01DX010 (sc), vehicle: steriod suspending solution
[9] = dose: 50.0 mg/kg/injection, schedule: Q01DX010 (sc), vehicle: steriod suspending solution
[10] = dose: 200.0 mg/kg/injection, schedule: Q01DX010 (ip), vehicle: saline
[11] = dose: 250.0 mg/kg/injection, schedule: Q01DX010 (ip), vehicle: saline
[12] = dose: 62.5 mg/kg/injection, schedule: Q01DX010 (ip), vehicle: saline

## C[C@@H]1C[C@@H]([C@H](O)CC2CC(=O)NC(=O)C2)C(=O)[C@@H](C)C1
[1]
  T/C: 80 % of control and 81 % of control
[2]
  T/C: 99 % of control and 103 % of control
[3]
  T/C: 63 % of control and 75 % of control
[4]
  T/C: 43 % of control and 60 % of control

## Nc1nc2n[nH]nc2c(=O)[nH]1
dose: 25.0 mg/kg/injection, schedule: Q01DX010 (ip), vehicle: alkali diluted with saline
  T/C: 119 % of control
dose: 50.0 mg/kg/injection, schedule: Q01DX010 (ip), vehicle: alkali diluted with saline
  T/C: 64 % of control
dose: 100.0 mg/kg/injection, schedule: Q01DX010 (ip), vehicle: alkali diluted with saline
  T/C: 42 % of control and 49 % of control
dose: 200.0 mg/kg/injection, schedule: Q01DX010 (ip), vehicle: alkali diluted with saline
  T/C: 15 % of control and 29 % of control
dose: 400.0 mg/kg/injection, schedule: Q01DX010 (ip), vehicle: alkali diluted with saline
  T/C: 2 % of control

## O=C(CNC(=O)OCc1ccccc1)NCCCCCCNCCCCCCNC(=O)CNC(=O)OCc1ccccc1
[5]
  T/C: 120 % of control
[6]
  T/C: 97 % of control

## CN(C)c1ccc(/C=C/c2ccnc3ccccc23)cc1
[1]
  T/C: 59 % of control
[3]
  T/C: 39 % of control and 46 % of control
[4]
  T/C: 30 % of control and 38 % of control

## O[C@H](CN1CC1)[C@@H](O)CN1CC1
dose: 62.5 micrograms/kg/injection, schedule: Q01DX010 (ip), vehicle: saline
  T/C: 76 % of control
dose: 125.0 micrograms/kg/injection, schedule: Q01DX010 (ip), vehicle: saline
  T/C: 62 % of control
dose: 250.0 micrograms/kg/injection, schedule: Q01DX010 (ip), vehicle: saline
  T/C: 45 % of control
dose: 500.0 micrograms/kg/injection, schedule: Q01DX010 (ip), vehicle: saline
  T/C: 31 % of control

## C[C@]12C[C@H](O)[C@H]3[C@@H](CCC4=CC(=O)CC[C@@]43C)[C@@H]1CC[C@@H]2C(=O)CO
dose: 12.5 mg/kg/injection, schedule: Q01DX005 (sc), vehicle: steriod suspending solution
  T/C: 88 % of control
dose: 25.0 mg/kg/injection, schedule: Q01DX005 (sc), vehicle: steriod suspending solution
  T/C: 97 % of control
[7]
  T/C: 91 % of control and 69 % of control
dose: 25.0 mg/kg/injection, schedule: Q03DX004 (sc), vehicle: steriod suspending solution
  T/C: 91 % of control
dose: 50.0 mg/kg/injection, schedule: Q01DX005 (sc), vehicle: steriod suspending solution
  T/C: 63 % of control
dose: 50.0 mg/kg/injection, schedule: Q02DX010 (sc), vehicle: steriod suspending solution
  T/C: 91 % of control
dose: 50.0 mg/kg/injection, schedule: Q03DX004 (sc), vehicle: steriod suspending solution
  T/C: 56 % of control
dose: 75.0 mg/kg/injection, schedule: Q01DX010 (sc), vehicle: steriod suspending solution
  T/C: 105 % of control
dose: 75.0 mg/kg/injection, schedule: Q02DX010 (sc), vehicle: steriod suspending solution
  T/C: 101 % of control
dose: 100.0 mg/kg/injection, schedule: Q01DX005 (sc), vehicle: steriod suspending solution
  T/C: 32 % of control
dose: 100.0 mg/kg/injection, schedule: Q02DX010 (sc), vehicle: steriod suspending solution
  T/C: 101 % of control
dose: 100.0 mg/kg/injection, schedule: Q03DX004 (sc), vehicle: steriod suspending solution
  T/C: 33 % of control

## COc1cc([C@@H]2c3cc4c(cc3[C@H](O)[C@H]3COC(=O)[C@H]23)OCO4)cc(OC)c1OC
dose: 0.9 mg/kg/injection, schedule: Q01DX011 (ip), vehicle: carboxymethylcellulose (CMC)
  T/C: 56 % of control
dose: 1.7 mg/kg/injection, schedule: Q01DX011 (ip), vehicle: carboxymethylcellulose (CMC)
  T/C: 111 % of control
dose: 2.2 mg/kg/injection, schedule: Q01DX011 (ip), vehicle: carboxymethylcellulose (CMC)
  T/C: 80 % of control

## CO[C@@]12[C@H](COC(N)=O)C3=C(C(=O)C(C)=C(N)C3=O)N1C[C@@H]1N[C@@H]12
dose: 0.25 mg/kg/injection, schedule: Q01DX010 (ip), vehicle: saline
  T/C: 85 % of control
dose: 0.5 mg/kg/injection, schedule: Q01DX010 (ip), vehicle: saline
  T/C: 61 % of control
dose: 1.0 mg/kg/injection, schedule: Q01DX010 (ip), vehicle: saline
  T/C: 36 % of control

## C[C@]12CC[C@@H]3c4ccc(O)cc4CC[C@H]3[C@@H]1CC[C@@H]2O
dose: 6.25 mg/kg/injection, schedule: Q01DX010 (sc), vehicle: steriod suspending solution
  T/C: 80 % of control and 90 % of control
[8]
  T/C: 70 % of control and 86 % of control
[7]
  T/C: 77 % of control and 81 % of control
[9]
  T/C: 100 % of control and 82 % of control

## CN(C)CC(=O)c1ccc(O)c(O)c1
[10]
  T/C: 122 % of control
dose: 300.0 mg/kg/injection, schedule: Q01DX010 (ip), vehicle: saline
  T/C: 105 % of control
dose: 450.0 mg/kg/injection, schedule: Q01DX010 (ip), vehicle: saline
  T/C: 72 % of control
dose: 675.0 mg/kg/injection, schedule: Q01DX010 (ip), vehicle: saline
  T/C: 80 % of control

## OCC1OC(n2cnc3c(Cl)ncnc32)C(O)C1O (configuration not stated)
[11]
  T/C: 95 % of control and 103 % of control

## O=C1C=Cc2ccc(O)cc2C1=O
dose: 1.25 mg/kg/injection, schedule: Q01DX010 (ip), vehicle: saline
  T/C: 72 % of control
dose: 2.5 mg/kg/injection, schedule: Q01DX010 (ip), vehicle: saline
  T/C: 63 % of control

## O=C(NCCCCCCNC(=O)OCc1ccccc1)OCc1ccccc1
[5]
  T/C: 102 % of control
[6]
  T/C: 119 % of control
[10]
  T/C: 94 % of control
dose: 400.0 mg/kg/injection, schedule: Q01DX010 (ip), vehicle: saline
  T/C: 123 % of control

## CC(=O)Nc1c(Cl)cc2c(c1Cl)Cc1cc([N+](=O)[O-])ccc1-2
dose: 15.0 mg/kg/injection, schedule: Q01DX011 (ip), vehicle: carboxymethylcellulose (CMC)
  T/C: 85 % of control
dose: 65.0 mg/kg/injection, schedule: Q01DX011 (ip), vehicle: carboxymethylcellulose (CMC)
  T/C: 108 % of control

## Clc1ncnc2nc[nH]c12
dose: 7.5 mg/kg/injection, schedule: Q01DX010 (ip), vehicle: saline
  T/C: 91 % of control
dose: 15.0 mg/kg/injection, schedule: Q01DX010 (ip), vehicle: saline
  T/C: 84 % of control and 85 % of control
dose: 30.0 mg/kg/injection, schedule: Q01DX010 (ip), vehicle: saline
  T/C: 102 % of control
dose: 120.0 mg/kg/injection, schedule: Q01DX010 (ip), vehicle: saline
  T/C: 91 % of control

## CCCSc1ncnc2nc[nH]c12
dose: 125.0 mg/kg/injection, schedule: Q01DX010 (ip), vehicle: saline
  T/C: 21 % of control

## COc1cc(-c2ccc(Nc3ccccc3C(=O)O)c(OC)c2)ccc1Nc1ccccc1C(=O)O
dose: 12.5 mg/kg/injection, schedule: Q01DX010 (ip), vehicle: saline
  T/C: 61 % of control
dose: 25.0 mg/kg/injection, schedule: Q01DX010 (ip), vehicle: saline
  T/C: 53 % of control and 57 % of control
[5]
  T/C: 12 % of control and 30 % of control

## CC(=O)OC1C=CC(=O)OC1C1OC1C (configuration not stated)
dose: 4.0 mg/kg/injection, schedule: Q01DX011 (ip), vehicle: saline
  T/C: 53 % of control
dose: 6.0 mg/kg/injection, schedule: Q01DX011 (ip), vehicle: saline
  T/C: 72 % of control
dose: 9.0 mg/kg/injection, schedule: Q01DX011 (ip), vehicle: saline
  T/C: 62 % of control
dose: 13.0 mg/kg/injection, schedule: Q01DX011 (ip), vehicle: saline
  T/C: 56 % of control

## Nc1ncnc2[nH]ncc12
dose: 1.5 mg/kg/injection, schedule: Q01DX010 (ip), vehicle: saline
  T/C: 84 % of control and 88 % of control
dose: 3.0 mg/kg/injection, schedule: Q01DX010 (ip), vehicle: saline
  T/C: 73 % of control and 88 % of control
dose: 12.0 mg/kg/injection, schedule: Q01DX010 (ip), vehicle: saline
  T/C: 43 % of control

## CC(CCC(C)OS(C)(=O)=O)OS(C)(=O)=O (configuration not stated)
dose: 2.0 mg/kg/injection, schedule: Q01DX010 (ip), vehicle: saline
  T/C: 101 % of control
dose: 4.0 mg/kg/injection, schedule: Q01DX010 (ip), vehicle: saline
  T/C: 59 % of control and 78 % of control
dose: 8.0 mg/kg/injection, schedule: Q01DX010 (ip), vehicle: saline
  T/C: 101 % of control and 82 % of control

## CCn1cnc2c(=S)nc[nH]c21
[12]
  T/C: 96 % of control and 79 % of control

## C[C@]12CCC(=O)C=C1CC[C@@H]1[C@@H]2CC[C@@]2(C)[C@H]1CC[C@]2(C)O
[8]
  T/C: 91 % of control
[7]
  T/C: 61 % of control
[9]
  T/C: 90 % of control
dose: 100.0 mg/kg/injection, schedule: Q01DX010 (sc), vehicle: steriod suspending solution
  T/C: 97 % of control

## Cc1cc2nc3c(=O)[nH]c(=O)nc-3n(CC(O)C(O)C(O)C(O)CO)c2cc1C (configuration not stated)
[5]
  T/C: 86 % of control
[6]
  T/C: 88 % of control
[10]
  T/C: 58 % of control

## CS(=O)(=O)OCCCCOS(C)(=O)=O
dose: 6.25 mg/kg/injection, schedule: Q01DX010 (ip), vehicle: saline
  T/C: 103 % of control
[5]
  T/C: 58 % of control and 80 % of control
[6]
  T/C: 52 % of control

## O=CN(O)CC(=O)O
[12]
  T/C: 92 % of control and 67 % of control
[11]
  T/C: 104 % of control and 108 % of control

## Cc1cc(N(CCCl)CCCl)ccc1N=Nc1ccccc1C(=O)O
[1]
  T/C: 72 % of control and 79 % of control
[2]
  T/C: 16 % of control and 23 % of control
[3]
  T/C: 10 % of control
